Results as given in publication PMC5236087, “A Generic Multi-Compartmental CNS Distribution Model Structure for 9 Drugs Allows Prediction of Human Brain Target Site Concentrations” (Pharmaceutical Research, 2016).
Read-outs that look alike come from different tables or passages of the source. Marks after values point to notes of the source that are not given here.

Key:
[1] = Multi-compartmental brain PK model fitted to rat plasma and microdialysis (brainECF, CSF) data; assay type: in vivo; settings: parameter estimate (RSE, %); for clearance: male, Wistar, plasma, intravenous infusion, read-out: CLPL, clearance from the central compartment
Method: An overview of experimental data for nine compounds with different physicochemical characteristics used for model development is provided in Table I. The physicochemical characteristics of the nine compounds are provided in Table SI.
Animal study protocols were approved by the Animal Ethics Committee of Leiden University and all animal experiments were performed in accordance with the Dutch Law of Animal Experimentation (for approval numbers see Table SII). […] Between surgery and experiments, the animals were kept individually in Makrolon type three cages for 7 days to recover from surgical procedures.
Rats were anesthetized (5% isoflurane for induction, 1–2% as maintenance), and subsequently received cannulas in the femoral artery for serial blood sampling, and in the femoral vein for drug administration, respectively. Subsequently, microdialysis guides were inserted into different brain locations. The animals were allowed to recover for 1 week before the experiments were performed. One day before the experiment, the microdialysis dummies were replaced by microdialysis probes. For details on guides, probes and locations see Table SII.
Experiments generally started at 9:00 a.m. to minimize the influence of circadian rhythms. Microdialysis probes were continuously flushed with microdialysis perfusion fluid (PF) until equilibration before the start of drug administration. Drugs were administered at t = 0 h by intravenous infusion through the cannula implanted in the femoral vein. […] The general procedure of microdialysis is depicted in Fig. 1.
Separate models describing plasma and brain concentration-time profiles for all nine compounds were developed whereby plasma- and brain-related parameters were estimated simultaneously. A naïve pooling approach was used ([37]), i.e. inter-individual variability in each compound’s data was not quantified, because of the highly standardized experimental settings combined with the homogeneous nature of the animals within each study.
The structural model that was used as a starting point was based on our previously developed models ([23]–[25]).
First, a combined drug dispersion parameter was estimated to capture the CSF and ECF flow and turbulence flow of the drug molecules ([38],[39]).
Second, drug transfer across the BCSFB was excluded.
We evaluated for each drug the validity of the changes to the basic model with regard to a single or two different flow rates for drug dispersion and drug transport at the BCSFB.

[2] = set-up: method as in DrugBank (http://www.drugbank.ca/); PSA: unit not given beside the values; settings: ref DrugBank (http://www.drugbank.ca/), cited from earlier work
[3] = cited from earlier work; for fP (%), free fraction in plasma: rat data; for plasma protein binding (% bound): used to calculate free fraction in plasma
[4] = set-up: method as in PMID 4150300; settings: human; cited from earlier work
[5] = system: MRPs, OATs and OATPs; assay: Effect of co-administered probenecid on drug exchange at the BBB and BCSFB; assay type: in vivo; settings: rat
[6] = Fraction unbound in plasma (rat data); assay type: in vitro ADME; settings: rat pooled plasma, ultrafiltration; read-out: fP (%), free fraction in plasma
Method: To determine the free fraction of paliperidone and risperidone in plasma samples, Centrifree Ultrafiltration Devices from Merck Millipore (Amsterdam, The Netherlands) were used to separate the free from the protein bound risperidone and paliperidone in pooled plasma samples. Both the ultrafiltrate and the original pooled plasma sample (without ultrafiltration step) were measured. The free fraction was calculated according to the following Eq. 1:1 Freefraction=Ultrafiltrateconcentration/Pooledplasmaconcentration

[7] = system: P-gp; settings: rat; for Impact of active transport on QPL_ECF (covariate effect of inhibitor): with GF120918 or tariquidar, estimate (RSE, %)
[8] = with probenecid, estimate (RSE, %)

SMILES | QDIFF, drug dispersion rate in brain and CSF [1] | VPER1, distribution volume of the peripheral compartment 1 [1] | VPL, distribution volume of the central compartment [1] | log D (pH 7.4) [2] | No. of H acceptors [2] | No. of H donors [2] | PSA [2] | pKa (Base) [2] | clearance [1] | increase of QPL_ECF in the presence of P-gp inhibitors [7] | Impact of active transport on QPL_ECF (covariate effect of inhibitor) [7] | also measured
CC(=O)Nc1ccc(O)cc1 [Acetaminophen] | 0.0556 (10.3) mL/min | 219 (8.90) mL | 65.7 (25.4) mL | 0.5 | 2 | 2 | 49 | -4.4 | – | – | – | fraction; percentage of the drug which is reabsorbed by enterohepatic circulation [1]: 93.3(1.20) %; fP (%), free fraction in plasma ([3]; ref Westerhout, 2011): 81%; fp, free fraction in plasma [4]: 85%
CC(C)NCC(O)COc1ccc(CC(N)=O)cc1 (stereo not drawn) [Atenolol] | – | – | – | – | 4 | 3 | – | – | – | – | – | –
CN(Cc1cnc2nc(N)nc(N)c2n1)c1ccc(C(=O)N[C@@H](CCC(=O)O)C(=O)O)cc1 [Methotrexate] | 0.0598 (9.30) mL/min | 210 (7.20) mL | 51.2 (20.3) mL | -2.5 | 12 | 5 | 211 | 2.8 | 8.12 mL/min | – | – | VPER2, distribution volume of the peripheral compartment 2 [1]: 114 (6.60) mL; QDIFF, drug dispersion rate in brain and CSF ([1]; listed as methotrexate): 0.0598 mL/min; increase of QPL_ECF in the presence of the inhibitor of MRPs, OATs and OATPs [5]: 409%; Impact of active transport on QLV_PL (covariate effect of inhibitor) [5, 8]: 0.410 (16.0)^a; Impact of active transport on QPL_ECF (covariate effect of inhibitor) [5, 8]: 4.09 (3.7)^a; pKa (Acid) [2]: 3.4; fP (%), free fraction in plasma ([3]; ref Westerhout, 2014): 45%
CN1CC[C@]23c4c5ccc(O)c4O[C@H]2[C@@H](O)C=C[C@H]3[C@H]1C5 [Morphine] | – | – | – | – | 4 | 2 | – | – | – | – | – | –
Cc1nc2n(c(=O)c1CCN1CCC(c3noc4cc(F)ccc34)CC1)CCCC2O (stereo not drawn) [Paliperidone] | 0.0248 (10.7) mL/min | – | 28400 (8.00) mL | 2.1 | 5 | 1 | 82 | 8.8 | 192 mL/min | 43.4% | 0.434 (11.4)^b | fraction unbound [6]: 0.08; log P [2]: 1.8
O=C1NC(=O)C(c2ccccc2)(c2ccccc2)N1 [Phenytoin] | 0.0133 (13.0) mL/min | 5320 (7.80) mL | 2890 (7.90) mL | – | 2 | 2 | 58 | – | 44.7 mL/min | 35.5% | 0.355 (25.1)^b | QDIFF, drug dispersion rate in brain and CSF ([1]; listed as phenytoin): 0.0133 mL/min; plasma protein binding (% bound) [3]: 91%
C=C[C@H]1C[N@@]2CC[C@H]1C[C@@H]2[C@@H](O)c1ccnc2ccc(OC)cc12 [Quinidine] | 0.0237 (2.40) mL/min | – | – | – | 4 | 1 | 46 | – | – | 443% | 4.43 (2.80)^b | fP (%), free fraction in plasma ([3]; ref Westerhout, 2013): 14%
CCN1CCC[C@H]1CNC(=O)c1c(OC)ccc(Br)c1OC [Remoxipride] | – | – | – | 0.7 | 4 | 1 | 51 | 8.4 | – | – | – | log P [2]: 2.1; pKa (Acid) [2]: 13.1; fP (%), free fraction in plasma ([3]; ref Widman, 1993): 74%; plasma protein binding (% bound) [3]: 26%
Cc1nc2n(c(=O)c1CCN1CCC(c3noc4cc(F)ccc34)CC1)CCCC2 [Risperidone] | – | – | – | – | 4 | 0 | 62 | – | 465 mL/min | – | – | fraction unbound [6]: 0.07
